Laboratory results reported in patent publication US10201516B2 (The Regents of the University of California, priority 2014, dated 2019).

Assays:
PANC1 and PANC2.13 = assay: Morphology, viability and proliferating rate of human pancreatic cancer cell lines; type: cell-based
Procedure: The dead cells were removed, and MTS assay (Promega, G5430) was performed for determining the percentage of viable cells, according to the manufacturer's instructions. DMSO was used as vehicle control and for normalization.

[1] = system: PANC2.13 and PANC2.03 orthotopic tumors; assay: Established orthotopic human pancreatic tumors, burden by human cfDNA in plasma; type: in vivo, mouse; details: treatment from 14th day post-implantation, over time (FIG. 7B)
Procedure: The drug was daily administrated into either NOD-SCID or athymic nude mice by oral gavages (OG) at 1 mg/kg or intraperitoneal (I.P) injection at 0.5 mg/kg. 10% DMSO, 10% cremophor, and 80% saline solutions were used as the solvent and vehicle control.
All blood samples were collected in K2EDTA containing tubes (BD Microtainer, Ref 365974) and centrifuged at 1,500 g for 10 min. Then the supernatants were carefully collected from the top portion of the plasma to eliminate the possibility of cell contaminations. The plasma was stored at −80° C. until further use. The cfDNA was extracted from 100 μL of plasma using NucleoSpin Plasma XS kit (Macherey-Nagel; 740900).
Nucleic acid concentrations in all plasma samples were measured by quantitative polymerase chain reaction (PCR) using the AB7900HT (Applied Biosystems, Foster City, CA, USA) and TaqMan Universal PCR Master Mix (Applied Biosystems) according to the manufacturer's protocol. For quantification of human β-actin genomic DNA in mouse plasma samples, the following custom primers and probe sets were used: […]

[2] = human pancreatic cancer cells (FIG. 14A right)

CC(=O)O[C@@]12C[C@@H](C)[C@@]3(O)C(C=C(CO)C[C@]4(O)C(=O)C(C)=C[C@@H]34)[C@@H]1C2(C)C (stereo partly shown) [prostratin, 12-deoxyphorbol-13-acetate]
cell morphology (PANC1 and PANC2.13; human pancreatic cancer cell lines with mutant K-Ras (FIG. 14A left)): cell morphological changes phenocopying those observed with knock-down of K-Ras or over-expression of Fzd8
cell viability (PANC1 and PANC2.13; [2]): significantly reduced cell viability
proliferating rate (PANC1 and PANC2.13; [2]): significantly reduced
concentration of human specific cfDNA [1]: dramatically decreased
